In paper doi:10.1101/2025.07.04.663216, “A Computational Workflow for Structure-Guided Design of Potent and Selective Kinase Peptide Substrates” (bioRxiv, 2025):
Values belong to the sequence of their own block, whether it stands above or below them.

How the values were obtained:
ROS1 [1] = biological target: T1, ROS1 (Homo sapiens, UniProt P08922); test: Peptide selectivity assay (LIMS-kinase), ROS1; assay type: biochemical; conditions: LIMS-kinase ADP production; ROS1 0.63 nM, peptides 20.3 μM, ATP 100 μM, 30 min, room temperature; repeated twice
T1 construct: purchased Carna Biosciences 08–163
Procedure: (§1) All components equilibrated to 25°C prior to setting up reactions. All reagents added manually. Peptides added to 384-well microplates (Costar 3657 round bottom polypropylene). A pre-mixed buffer, enzyme, and ATP solution was added to initiate reaction. Reaction was quenched with 1% formic acid (final) following 30-minute incubation at room temperature. Kinase activity was evaluated by measuring MS signal of ADP-specific fragment ion. Experiments were repeated twice, with results expressed as mean ± standard deviation. Time 0 (background) values were subtracted from subsequent time-points.
(§2) RapidFire liquid chromatography and mass spectrometry methods were performed as previously described.

MET [2] = biological target: T2, MET (Homo sapiens, UniProt P08581); test: LIMS-kinase assay kinetic analysis (Km), MET; assay type: biochemical; conditions: for Km: LIMS-kinase, MS signal of ADP fragment, ATP 100 μM, peptide from 300–400 μM, 2- or 3-fold dilutions, 25°C, Michaelis-Menten fit, repeated twice
T2 construct: purchased Carna Biosciences 08–151
T2 sequence (P08581 25-1390): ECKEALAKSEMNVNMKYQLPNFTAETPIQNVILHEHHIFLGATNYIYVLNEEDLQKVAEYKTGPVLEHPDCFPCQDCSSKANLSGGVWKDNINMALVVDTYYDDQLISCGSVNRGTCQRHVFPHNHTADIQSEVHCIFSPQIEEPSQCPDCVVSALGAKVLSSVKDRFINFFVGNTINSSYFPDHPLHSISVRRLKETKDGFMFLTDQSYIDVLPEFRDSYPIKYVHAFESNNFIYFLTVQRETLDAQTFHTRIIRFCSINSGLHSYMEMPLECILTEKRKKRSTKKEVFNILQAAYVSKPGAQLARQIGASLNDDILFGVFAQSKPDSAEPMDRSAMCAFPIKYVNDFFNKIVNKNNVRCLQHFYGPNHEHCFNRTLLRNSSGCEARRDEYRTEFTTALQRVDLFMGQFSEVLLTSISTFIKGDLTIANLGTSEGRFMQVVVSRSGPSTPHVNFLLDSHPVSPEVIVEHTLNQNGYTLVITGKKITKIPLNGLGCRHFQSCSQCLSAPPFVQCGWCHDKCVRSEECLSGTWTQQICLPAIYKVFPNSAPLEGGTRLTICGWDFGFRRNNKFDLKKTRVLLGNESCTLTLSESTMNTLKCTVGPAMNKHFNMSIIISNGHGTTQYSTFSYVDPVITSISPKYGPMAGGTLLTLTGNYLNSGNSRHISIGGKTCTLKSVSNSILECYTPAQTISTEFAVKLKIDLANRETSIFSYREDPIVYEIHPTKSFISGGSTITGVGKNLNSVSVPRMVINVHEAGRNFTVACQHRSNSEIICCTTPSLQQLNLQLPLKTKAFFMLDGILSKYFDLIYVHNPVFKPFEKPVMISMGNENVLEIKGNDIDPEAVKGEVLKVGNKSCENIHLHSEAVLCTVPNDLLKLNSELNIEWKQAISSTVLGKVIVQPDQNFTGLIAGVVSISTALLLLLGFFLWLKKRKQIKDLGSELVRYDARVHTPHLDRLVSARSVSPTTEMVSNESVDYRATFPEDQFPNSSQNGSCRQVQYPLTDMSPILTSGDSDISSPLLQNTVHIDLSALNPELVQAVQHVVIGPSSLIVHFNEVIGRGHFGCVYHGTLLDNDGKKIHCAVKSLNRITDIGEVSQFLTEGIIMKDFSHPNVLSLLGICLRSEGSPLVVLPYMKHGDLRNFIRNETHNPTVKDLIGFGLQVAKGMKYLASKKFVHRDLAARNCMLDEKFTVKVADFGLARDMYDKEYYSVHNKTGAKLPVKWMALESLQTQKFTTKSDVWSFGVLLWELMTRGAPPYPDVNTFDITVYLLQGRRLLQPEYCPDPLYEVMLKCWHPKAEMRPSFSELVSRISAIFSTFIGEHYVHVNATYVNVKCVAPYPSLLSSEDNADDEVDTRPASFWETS
Text: (§3) Figures 3A and 3B illustrate the schematic of a kinase assay reaction and the multiple reaction monitoring (MRM) phosphorylation detection system employed in the LIMS-kinase assay. The MRM setup comprises a RapidFire liquid chromatography sampler (Agilent) coupled to a triple quadrupole mass spectrometer (AB Sciex 6500). Quadrupole 1 (Q1) acts as a mass filter, selecting precursor ions based on their mass-to-charge ratios. Q2 functions as a collision cell, fragmenting these precursor ions into product ions. Q3 serves as an additional mass filter, specifically monitoring desired product ion fragments originating from the Q1-selected parent ion (Figure 3B).
(§4) To determine kinase activity, we directly measured ADP production by following specific ADP ion fragments rather than quantifying phosphorylated peptide fragments as in our original published LIMS-kinase assay. We chose to measure ADP production rather than the phosphorylated peptide product to avoid potential variations in ionization efficiency or fragmentation patterns that can arise from differences in amino acid sequences and physicochemical properties of different peptide substrates. This ensures not only a more direct and unbiased comparison of potency across different peptides, but also broad applicability of optimized substrates across different assay platforms. Initial tests confirmed that we were able to selectively detect an ADP fragment in kinase/peptide reactions (Figure S5). The ADP signal was enzyme concentration- and time-dependent, consistent with the expected response of a functional assay. […] We evaluated two enzyme concentrations with the objective of selecting the concentration where activity was linear to 60 minutes with a strong signal (Figure S5). […]
(§5) Final working concentrations of enzyme varied by kinase. […] Activity was evaluated by measuring MS signal of ADP-specific fragment ion. Experiments were repeated twice, with results expressed as mean ± standard deviation.
(§6) Km was evaluated by linear regression of the first three time-points at each concentration of peptide. […]

MET [3] = biological target: T2, MET; test: ADP-Glo kinase assay, MET; assay type: biochemical; conditions: ADP-Glo luminescence; vs parent EEPLYWSFPAK; enzyme 1.25–10 nM, ATP 10 μM, peptide 1 μM, 90 min, 25°C; repeated twice, mean
Text: (§7) To experimentally evaluate the computationally optimized peptide sequences, we chose five kinases based on commercial availability. Using the ipAE, pLDDT, and ipTM scores, we ranked the Subtimizer-designed sequences, and for each kinase we selected two to five peptides for synthesis and experimental testing. We evaluated the activity of the peptides using the ADP-Glo kinase assay, a luminescence-based method that quantifies ADP production as a measure of kinase activity. First, we measured the ADP-Glo signals for the parental peptide and the baseline (no enzyme background) for the five kinases. […] The varying signal intensities across different kinases reflect differences in their specific activities and the efficiency of the parent peptide substrates.
(§8) ADP-Glo Kit (ADP-Glo™ Kinase Assay, Cat#V6930) was obtained from Promega. The kinases ALK (#08–518), MET (#08–151), ROS1 (#08–163), and EGFR L858R (#08–502) were products of Carna Biosciences. SRC was expressed and purified as previously reported. Substrate peptides were obtained from Biomatik Corporation (Wilmington, DE, USA). All components were equilibrated to 25°C prior to setting up reactions in 384-well microplates (White ProxiPlate 384-shallow well Plus). […] Experiments were repeated twice with results expressed as mean ± standard deviation. Luminescence was detected on a Synergy Neo2 plate reader.

ROS1 [4] = biological target: T1, ROS1; test: LIMS-kinase assay kinetic analysis (Km), ROS1; assay type: biochemical; conditions: for Km: LIMS-kinase, MS signal of ADP fragment, ATP 100 μM, peptide from 300–400 μM, 2- or 3-fold dilutions, 25°C, Michaelis-Menten fit, repeated twice
Text: as §3, §4, §5, §6

EGFR L858R = test: ADP-Glo kinase assay, EGFR L858R; assay type: biochemical; conditions: ADP-Glo luminescence; vs parent KEEIYFFF; enzyme 1.25–10 nM, ATP 10 μM, peptide 1 μM, 90 min, 25°C; repeated twice, mean
Text: as §7, §8

ALK [5] = biological target: T3, ALK (Homo sapiens, UniProt Q9UM73); test: LIMS-kinase assay kinetic analysis (Km), ALK; assay type: biochemical; conditions: MS signal of ADP fragment, ATP 100 μM, peptide from 300–400 μM, 2- or 3-fold dilutions, 25°C, Michaelis-Menten fit, repeated twice
T3 construct: purchased Carna Biosciences 08–518
T3 sequence (Q9UM73 19-1620): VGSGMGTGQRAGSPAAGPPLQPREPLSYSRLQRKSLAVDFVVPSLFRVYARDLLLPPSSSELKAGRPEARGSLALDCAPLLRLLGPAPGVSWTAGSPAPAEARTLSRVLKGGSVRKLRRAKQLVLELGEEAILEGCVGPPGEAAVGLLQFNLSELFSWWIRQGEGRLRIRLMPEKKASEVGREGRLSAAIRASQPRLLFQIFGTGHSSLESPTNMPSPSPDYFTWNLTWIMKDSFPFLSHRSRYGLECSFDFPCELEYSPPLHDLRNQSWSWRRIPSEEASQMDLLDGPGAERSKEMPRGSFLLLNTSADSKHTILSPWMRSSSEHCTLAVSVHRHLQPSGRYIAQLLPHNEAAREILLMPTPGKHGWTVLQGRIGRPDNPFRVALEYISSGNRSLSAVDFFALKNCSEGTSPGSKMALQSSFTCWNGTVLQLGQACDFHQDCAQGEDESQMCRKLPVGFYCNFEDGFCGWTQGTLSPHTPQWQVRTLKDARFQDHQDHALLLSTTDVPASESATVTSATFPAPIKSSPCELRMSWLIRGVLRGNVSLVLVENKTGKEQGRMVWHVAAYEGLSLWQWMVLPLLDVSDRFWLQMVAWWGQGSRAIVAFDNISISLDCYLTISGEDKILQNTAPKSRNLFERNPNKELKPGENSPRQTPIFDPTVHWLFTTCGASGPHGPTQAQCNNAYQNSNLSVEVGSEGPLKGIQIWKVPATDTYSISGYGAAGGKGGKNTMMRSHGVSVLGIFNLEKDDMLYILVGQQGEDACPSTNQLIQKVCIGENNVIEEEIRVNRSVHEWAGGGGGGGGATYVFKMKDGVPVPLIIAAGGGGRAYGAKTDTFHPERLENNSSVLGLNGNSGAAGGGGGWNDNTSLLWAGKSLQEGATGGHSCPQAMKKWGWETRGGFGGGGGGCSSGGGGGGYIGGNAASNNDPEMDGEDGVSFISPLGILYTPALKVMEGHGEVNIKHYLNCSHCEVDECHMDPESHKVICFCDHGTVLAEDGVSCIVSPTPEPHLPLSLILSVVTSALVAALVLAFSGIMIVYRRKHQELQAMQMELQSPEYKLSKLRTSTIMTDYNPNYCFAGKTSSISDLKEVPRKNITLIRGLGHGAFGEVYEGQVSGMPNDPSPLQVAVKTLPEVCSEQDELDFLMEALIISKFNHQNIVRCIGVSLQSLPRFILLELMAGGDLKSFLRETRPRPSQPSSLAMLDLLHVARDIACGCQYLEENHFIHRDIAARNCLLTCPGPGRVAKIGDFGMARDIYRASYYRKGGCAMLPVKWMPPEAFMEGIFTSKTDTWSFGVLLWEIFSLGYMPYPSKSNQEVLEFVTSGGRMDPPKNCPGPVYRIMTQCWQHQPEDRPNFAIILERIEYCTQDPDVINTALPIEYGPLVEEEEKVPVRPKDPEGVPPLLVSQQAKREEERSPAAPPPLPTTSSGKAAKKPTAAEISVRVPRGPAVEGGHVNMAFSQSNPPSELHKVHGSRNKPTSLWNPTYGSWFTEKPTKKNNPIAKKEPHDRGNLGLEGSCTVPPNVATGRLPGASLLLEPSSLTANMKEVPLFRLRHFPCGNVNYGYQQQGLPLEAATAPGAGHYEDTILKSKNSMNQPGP
Text: as §3
To determine kinase activity, we directly measured ADP production by following specific ADP ion fragments rather than quantifying phosphorylated peptide fragments as in our original published LIMS-kinase assay. […] We evaluated two enzyme concentrations with the objective of selecting the concentration where activity was linear to 60 minutes with a strong signal (Figure S5). […]
as §5, §6

ALK [6] = biological target: T3, ALK; test: ADP-Glo kinase assay, ALK; assay type: biochemical; conditions: ADP-Glo luminescence; vs parent KSRGDYMTMQIG (axltide); enzyme 1.25–10 nM, ATP 10 μM, peptide 1 μM, 90 min, 25°C; repeated twice, mean
Text: as §7, §8

[7] = Peptide solubility observed in Km study; assay type: physicochemical; conditions: observation in the Km study with EGFR L858R; peptide concentrations started at 300–400 μM
Text: We ran LIMS-kinase assays using a range of peptide concentrations. We plotted the initial reaction rate for each concentration to generate Michaelis-Menten curves. […] We could not run a successful Km study with EGFR L858R due to the insolubility of the parental MS-csktide1 peptide at high concentrations, similar to our previous observation.

MET [8] = biological target: T2, MET; test: Peptide selectivity assay (LIMS-kinase), MET; assay type: biochemical; conditions: LIMS-kinase ADP production; MET 5 nM, peptides 134 μM, ATP 100 μM, 30 min, room temperature; repeated twice
Procedure: as §1, §2

ROS1 [9] = biological target: T1, ROS1; test: ADP-Glo kinase assay, ROS1; assay type: biochemical; conditions: ADP-Glo luminescence; vs parent EEPLYWSFPAK; enzyme 1.25–10 nM, ATP 10 μM, peptide 1 μM, 90 min, 25°C; repeated twice, mean
Text: as §7, §8

Sequence: EEPLYWSFPAK [MS-srctide, parental peptide substrate … for many kinases including MET and ROS1, reference compound]
- Km (ROS1 [4]): 47.6 µM
- Km (MET [2]): 288 µM

Sequence: HDPEDYMWVEMR [alk-s3, designed ALK peptide substrate …]
- Km (ALK [5]): 14.1 µM

Sequence: KEEIYFFF [MS-csktide1, parental peptide substrate KEEIYFFF used for EGFR L858R]
- solubility at high concentrations [7]: insolubility

Sequence: KSRGDYMTMQIG [MS-axltide, parental peptide substrate … used for ALK, reference compound]
- Km (ALK [5]): 18.4 µM

Sequence: PDPDDYMLMEIG [alk-s4, designed ALK peptide substrate …]
- relative percentage change (increase) in kinase activity compared to parent peptide (ALK [6]): 130%

Continued, values first:

- reduction in ROS1 kinase activity compared to ros1-s2 (ROS1 [1]): over 11 fold
- Km (MET [2]): 134 µM
- reduction in Km vs parental MS-srctide (MET [2]; MET, Km 288 to 134 µM): over 2 fold
- relative percentage change (increase) in kinase activity compared to parent peptide (MET [3]): approximately 41%
Sequence: EEPAYVALPAK [met-s1]

- relative percentage change (increase) in kinase activity compared to parent peptide (MET [3]): ~11%
Sequence: EEPLYVALPAP [met-s2, designed MET peptide substrate …]

- relative percentage change (increase) in kinase activity compared to parent peptide (EGFR L858R): about 10%
Sequence: EPEDYAPV [egfr-s1, designed EGFR L858R peptide substrate EPEDYAPV]

- relative percentage change (increase) in kinase activity compared to parent peptide (EGFR L858R): approximately 5%
Sequence: EPEGYAPL [egfr-s2]

- relative percentage change (increase) in kinase activity compared to parent peptide (ALK [6]): 146%
Sequence: HSPEDYMWVEME [alk-s5, designed ALK peptide substrate …]

- reduction in MET kinase activity compared to met-s1 (MET [8]): over 4 fold
- Km (ROS1 [4]): 20.3 µM
- improvement in apparent binding affinity (Km) vs parental MS-srctide (ROS1 [4]; ROS1, Km 47.59 to 20.30 µM): > 2 fold
- relative percentage change (increase) in kinase activity compared to parent peptide (ROS1 [9]): about 35%
Sequence: KEPFYMRLKPK [ros1-s2]
